Values quoted from earlier work in US10052295B2, “Method, composition and package for bowel cleansing” (priority 2011, dated 2018).

Structure (SMILES)	GI symptoms (doses as high as 50 mg (Storey 2006))	toxic effects in humans (doses as high as 50 grams per day for over two years (Makinen 1976))	watery feces (doses over 35 grams, compared with erythritol (Storey 2006))
OC[C@@H](O)[C@@H](O)CO [erythritol]	not reported to produce any significant GI symptoms	–	–
OC[C@@H](O)[C@H](O)[C@@H](O)CO [xylitol]	–	no toxic effects	significantly more watery feces
